The text below walks through data of US11312712B2, “Azabenzimidazoles and their use as AMPA receptor modulators” (Janssen Pharmaceutica NV, priority 2015, dated 2022).

Structures are written as SMILES.

Chain of GluA1o-γ8 (GRIA1o-CACNG8 fusion construct) (P42261 other isoform, or with tags, fused parts or gaps): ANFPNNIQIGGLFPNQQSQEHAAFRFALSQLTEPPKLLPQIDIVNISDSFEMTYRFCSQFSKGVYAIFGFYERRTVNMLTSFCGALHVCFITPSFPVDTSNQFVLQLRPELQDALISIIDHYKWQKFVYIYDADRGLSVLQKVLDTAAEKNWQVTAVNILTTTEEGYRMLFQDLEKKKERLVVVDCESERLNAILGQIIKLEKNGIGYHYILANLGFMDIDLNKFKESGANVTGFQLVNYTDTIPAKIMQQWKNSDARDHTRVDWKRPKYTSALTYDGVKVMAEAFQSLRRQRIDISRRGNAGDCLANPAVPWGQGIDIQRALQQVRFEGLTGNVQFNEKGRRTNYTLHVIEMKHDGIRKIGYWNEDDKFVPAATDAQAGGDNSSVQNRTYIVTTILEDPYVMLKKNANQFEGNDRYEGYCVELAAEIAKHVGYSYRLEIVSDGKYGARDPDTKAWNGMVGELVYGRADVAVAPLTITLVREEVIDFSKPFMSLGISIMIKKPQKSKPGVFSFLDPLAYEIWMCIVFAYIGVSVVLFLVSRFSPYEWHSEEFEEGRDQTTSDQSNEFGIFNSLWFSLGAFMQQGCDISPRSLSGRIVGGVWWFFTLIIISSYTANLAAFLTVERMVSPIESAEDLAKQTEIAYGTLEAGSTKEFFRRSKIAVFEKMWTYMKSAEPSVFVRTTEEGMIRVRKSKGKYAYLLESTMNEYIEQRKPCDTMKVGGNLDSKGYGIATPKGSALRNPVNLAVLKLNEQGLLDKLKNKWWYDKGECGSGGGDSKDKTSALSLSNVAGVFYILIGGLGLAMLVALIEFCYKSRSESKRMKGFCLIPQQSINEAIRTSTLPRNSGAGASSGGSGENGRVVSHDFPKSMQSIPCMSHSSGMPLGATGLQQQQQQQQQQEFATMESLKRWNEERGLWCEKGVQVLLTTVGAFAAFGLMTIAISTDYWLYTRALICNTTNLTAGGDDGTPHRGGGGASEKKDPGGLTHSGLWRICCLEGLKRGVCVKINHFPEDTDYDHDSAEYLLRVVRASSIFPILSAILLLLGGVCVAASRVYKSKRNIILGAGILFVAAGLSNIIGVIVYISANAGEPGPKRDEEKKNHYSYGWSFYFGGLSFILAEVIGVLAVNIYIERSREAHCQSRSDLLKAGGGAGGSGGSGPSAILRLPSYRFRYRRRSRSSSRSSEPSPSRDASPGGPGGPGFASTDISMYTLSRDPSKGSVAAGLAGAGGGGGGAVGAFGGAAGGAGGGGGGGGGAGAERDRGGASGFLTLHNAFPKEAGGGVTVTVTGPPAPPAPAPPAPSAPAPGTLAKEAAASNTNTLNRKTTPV

This experiment addresses GluA1o-γ8 (GRIA1o-CACNG8 fusion construct) (Homo sapiens (Human), UniProt P42261+Q8WXS5). The experiment can be described thus: Calcium flux assay (FLIPR), inhibition of TARP γ8 dependent AMPA receptor activity. Conditions: GluA1o-γ8 (GRIA1o-CACNG8 fusion) in HEK293 cells, calcium flux after 15 μM glutamate. Format: cell-based. The gist of the method: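 Glutamate (15 μM) was added to a stable HEK293 line carrying the GluA1o–γ8 fusion, which had been preincubated with compound and calcium dye in HEPES buffer, pH 7.4. Normalized FLIPR fluorescence (no compound vs 10 μM CP465022) was fitted with four parameters; pIC50 is the midpoint's negative log.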
Take `COCCc1nc2ccc(C(F)(F)F)nc2n1-c1ccc2c(c1)CC(=O)N2` [Example 77, 5-[2-(2-Methoxyethyl)-5-(trifluoromethyl)imidazo[4,5-b]pyridin-3-yl]indolin-2-one]: the IC50 is 251 nM.

With `c1cc2[nH]ncc2cc1-n1c(C2CCC2)nc2ccc(C3CC3)nc21` [Example 78, 2-Cyclobutyl-5-cyclopropyl-3-(1H-indazol-5-yl)imidazo[4,5-b]pyridine], the IC50 was 0.158 nM.

In the case of `CC(C)c1nc2ccc(C3CC3)nc2n1-c1ccc2[nH]ncc2c1` [Example 79, 5-Cyclopropyl-3-(1H-indazol-5-yl)-2-isopropyl-imidazo[4,5-b]pyridine], the IC50 is 2 nM.

On to `O=c1[nH]c2ccc(-n3c(C4CCC4)nc4ccc(C(F)(F)F)nc43)cc2o1` [Example 80, 6-[2-Cyclobutyl-5-(trifluoromethyl)imidazo[4,5-b]pyridin-3-yl]-3H-1,3-benzoxazol-2-one], for which the IC50 was 2 nM.

Take `O=C(c1nc2ccc(C(F)(F)F)nc2n1-c1ccc2[nH]ncc2c1)N1CCC1` [Example 81, Azetidin-1-yl-[3-(1H-indazol-5-yl)-5-(trifluoromethyl)imidazo[4,5-b]pyridin-2-yl]methanone]: the IC50 is 501 nM.

Take `Nc1ccc2nc(-c3ccc(F)cc3)n(-c3ccc4[nH]c(=O)sc4c3)c2n1` [Example 82, 6-[5-Amino-2-(4-fluorophenyl)imidazo[4,5-b]pyridin-3-yl]-3H-1,3-benzothiazol-2-one]: the IC50 is 63.1 nM.

In the case of `CCC(CC)c1nc2ccc(C(F)(F)F)nc2n1-c1ccc2c(c1)CC(=O)N2` [Example 83, 5-[2-(1-Ethylpropyl)-5-(trifluoromethyl)imidazo[4,5-b]pyridin-3-yl]indolin-2-one], the IC50 was 63.1 nM.

Regarding `Cc1ccc2nc(C(C)C)n(-c3ccc4c(c3)CC(=O)N4)c2n1` [Example 84, 5-(2-Isopropyl-5-methyl-imidazo[4,5-b]pyridin-3-yl)indolin-2-one], the IC50 is 63.1 nM.

In the case of `O=C(Nc1ccccc1)c1nc2ccc(C(F)(F)F)nc2n1-c1ccc2[nH]ncc2c1` [Example 85, 3-(1H-Indazol-5-yl)-N-phenyl-5-(trifluoromethyl)imidazo[4,5-b]pyridine-2-carboxamide], the IC50 was 79.4 nM.

With `Fc1ccc(-c2nc3ccc(C4CC4)nc3n2-c2ccc3[nH]ncc3c2)cc1` [Example 86, 5-Cyclopropyl-2-(4-fluorophenyl)-3-(1H-indazol-5-yl)imidazo[4,5-b]pyridine], the IC50 was 0.794 nM.

On to `Cc1ccc2nc(C3CC3)n(-c3ccc4c(c3)CC(=O)N4)c2n1` [Example 87, 5-(2-Cyclopropyl-5-methyl-imidazo[4,5-b]pyridin-3-yl)indolin-2-one], for which the IC50 was 79.4 nM.

For the molecule `O=C1Cc2cc(-n3c(C(F)(F)F)nc4ccc(C(F)(F)F)nc43)ccc2N1` [Example 88, 5-[2,5-Bis(trifluoromethyl)imidazo[4,5-b]pyridin-3-yl]indolin-2-one], the IC50 is 1.58 nM.

On to `FC(F)(F)c1ccc2nc(C(F)(F)F)n(-c3ccc4[nH]ncc4c3)c2n1` [Example 89, 3-(1H-Indazol-5-yl)-2,5-bis(trifluoromethyl)imidazo[4,5-b]pyridine], for which the IC50 was 1.26 nM.

`FC(F)c1nc2ccc(C(F)(F)F)nc2n1-c1ccc2[nH]ncc2c1` [Example 90, 2-(Difluoromethyl)-3-(1H-indazol-5-yl)-5-(trifluoromethyl)imidazo[4,5-b]pyridine]: the IC50 was 3.16 nM.

For the molecule `FC(F)(F)c1ccc2nc(-c3cccs3)n(-c3ccc4[nH]ncc4c3)c2n1` [Example 91, 3-(1H-Indazol-5-yl)-2-(2-thienyl)-5-(trifluoromethyl)imidazo[4,5-b]pyridine], the IC50 was 3.98 nM.

As for `FC(F)(F)c1ccc2nc(-c3ccco3)n(-c3ccc4[nH]ncc4c3)c2n1` [Example 92, 2-(2-Furyl)-3-(1H-indazol-5-yl)-5-(trifluoromethyl)imidazo[4,5-b]pyridine], the half-inhibitory concentration (IC50) was 5.01 nM.

As for `CC(F)(F)c1nc2ccc(C(F)(F)F)nc2n1-c1ccc2c(c1)CC(=O)N2` [Example 93, 5-[2-(1,1-Difluoroethyl)-5-(trifluoromethyl)imidazo[4,5-b]pyridin-3-yl]indolin-2-one], the IC50 is 7.94 nM.

On to `O=C1Cc2cc(-n3c(C(F)F)nc4ccc(C(F)(F)F)nc43)ccc2N1` [Example 94, 5-[2-(Difluoromethyl)-5-(trifluoromethyl)imidazo[4,5-b]pyridin-3-yl]indolin-2-one], for which the IC50 was 50.1 nM.

As for `O=C1Cc2cc(-n3c(C4CC4)nc4ccc(Cl)nc43)ccc2N1` [Example 95, 5-(5-Chloro-2-cyclopropyl-imidazo[4,5-b]pyridin-3-yl)indolin-2-one], the IC50 is 39.8 nM.

Regarding `CC(C)(C)Cc1nc2ccc(C(F)(F)F)nc2n1-c1ccc2c(c1)CC(=O)N2` [Example 97, 5-[2-(2,2-Dimethylpropyl)-5-(trifluoromethyl)imidazo[4,5-b]pyridin-3-yl]indolin-2-one], the IC50 is 251 nM.

As to `Cc1nc2ccc(C(F)(F)F)nc2n1-c1ccc2[nH]ncc2c1` [Example 98, 3-(1H-Indazol-5-yl)-2-methyl-5-(trifluoromethyl)imidazo[4,5-b]pyridine], the IC50 is 63.1 nM.

Turning to `CCc1nc2ccc(C(F)(F)F)nc2n1-c1ccc2c(c1)CC(=O)N2` [Example 99, 5-[2-Ethyl-5-(trifluoromethyl)imidazo[4,5-b]pyridin-3-yl]indolin-2-one], the IC50 was 12.6 nM.

On to `CC(C)Cc1nc2ccc(C(F)(F)F)nc2n1-c1ccc2[nH]ncc2c1` [Example 101, 3-(1H-Indazol-5-yl)-2-isobutyl-5-(trifluoromethyl)imidazo[4,5-b]pyridine], for which the IC50 is 25.1 nM.

Consider `FC(F)(F)c1ccc2nc(C3CCC3)n(-c3ccc4[nH]ncc4c3)c2n1` [Example 103, 2-Cyclobutyl-3-(1H-indazol-5-yl)-5-(trifluoromethyl)imidazo[4,5-b]pyridine], for which the IC50 was 1.58 nM.

For `FC(F)(F)c1ccc2nc(C3CCCC3)n(-c3ccc4[nH]ncc4c3)c2n1` [Example 104, 2-Cyclopentyl-3-(1H-indazol-5-yl)-5-(trifluoromethyl)imidazo[4,5-b]pyridine], the IC50 is 5.01 nM.

`CCc1nc2ccc(C(F)(F)F)nc2n1-c1ccc2[nH]ncc2c1` [Example 105, 2-Ethyl-3-(1H-indazol-5-yl)-5-(trifluoromethyl)imidazo[4,5-b]pyridine]: the IC50 is 7.94 nM.

Regarding `O=c1[nH]c2ccc(-n3c(C4CC4)nc4ccc(C(F)(F)F)nc43)cc2[nH]1` [Example 106, 5-[2-Cyclopropyl-5-(trifluoromethyl)imidazo[4,5-b]pyridin-3-yl]-1,3-dihydrobenzimidazol-2-one], the IC50 is 2.51 nM.

With `O=c1[nH]c2ccc(-n3c(C4CC4)nc4ccc(C(F)(F)F)nc43)cc2o1` [Example 107, 6-[2-Cyclopropyl-5-(trifluoromethyl)imidazo[4,5-b]pyridin-3-yl]-3H-1,3-benzoxazol-2-one], the IC50 was 15.8 nM.

Turning to `CC(C)(C)c1nc2ccc(C(F)(F)F)nc2n1-c1ccc2[nH]ncc2c1` [Example 108, 2-tert-Butyl-3-(1H-indazol-5-yl)-5-(trifluoromethyl)imidazo[4,5-b]pyridine], the IC50 is 20 nM.

In the case of `CC(C)c1nc2ccc(C(F)(F)F)nc2n1-c1ccc2[nH]ncc2c1` [Example 109, 3-(1H-Indazol-5-yl)-2-isopropyl-5-(trifluoromethyl)imidazo[4,5-b]pyridine], the IC50 is 0.251 nM.

For the molecule `Fc1ccc(-c2nc3ccc(C(F)(F)F)nc3n2-c2ccc3[nH]ncc3c2)cc1` [Example 110, 2-(4-Fluorophenyl)-3-(1H-indazol-5-yl)-5-(trifluoromethyl)imidazo[4,5-b]pyridine], the concentration for half-maximal inhibition (IC50) was 0.316 nM.

For the molecule `O=c1[nH]c2ccc(-n3c(-c4ccccc4)nc4ccc(O)nc43)cc2s1` [Example 111, 6-(5-Hydroxy-2-phenyl-imidazo[4,5-b]pyridin-3-yl)-3H-1,3-benzothiazol-2-one], the IC50 is 15.8 nM.

In the case of `Fc1ccc(-c2nc3cccnc3n2-c2cnc3[nH]ncc3c2)cc1` [Example 112, 2-(4-Fluorophenyl)-3-(1H-pyrazolo[3,4-b]pyridin-5-yl)imidazo[4,5-b]pyridine], the IC50 was 398 nM.

Regarding `FC(F)(F)Cc1nc2ccc(C(F)(F)F)nc2n1-c1ccc2[nH]ncc2c1` [Example 113, 3-(1H-Indazol-5-yl)-2-(2,2,2-trifluoroethyl)-5-(trifluoromethyl)imidazo[4,5-b]pyridine], the IC50 was 251 nM.

On to `CCOc1nc2ccc(C(F)(F)F)nc2n1-c1ccc2[nH]ncc2c1` [Example 114, 2-Ethoxy-3-(1H-indazol-5-yl)-5-(trifluoromethyl)imidazo[4,5-b]pyridine], for which the IC50 was 12.6 nM.

As to `OC1(c2nc3ccc(C(F)(F)F)nc3n2-c2ccc3[nH]ncc3c2)CC1` [Example 115, 1-[3-(1H-Indazol-5-yl)-5-(trifluoromethyl)imidazo[4,5-b]pyridin-2-yl]cyclopropanol], the IC50 is 200 nM.

Consider `CC(F)(F)c1nc2ccc(C(F)(F)F)nc2n1-c1ccc2[nH]ncc2c1` [Example 116, 2-(1,1-Difluoroethyl)-3-(1H-indazol-5-yl)-5-(trifluoromethyl)imidazo[4,5-b]pyridine], for which the IC50 was 2 nM.

As to `CC(C)(C)c1ccc2nc(-c3ccc(F)cc3)n(-c3ccc4[nH]ncc4c3)c2n1` [Example 118, 5-tert-Butyl-2-(4-fluorophenyl)-3-(1H-indazol-5-yl)imidazo[4,5-b]pyridine], the IC50 was 0.158 nM.

Consider `CC(C)c1ccc2nc(C3CCC3)n(-c3ccc4[nH]ncc4c3)c2n1` [Example 119, 2-Cyclobutyl-3-(1H-indazol-5-yl)-5-isopropyl-imidazo[4,5-b]pyridine], for which the IC50 was 0.0316 nM.

As for `CC(C)c1ccc2nc(-c3ccc(F)cc3)n(-c3ccc4[nH]ncc4c3)c2n1` [Example 120, 2-(4-Fluorophenyl)-3-(1H-indazol-5-yl)-5-isopropyl-imidazo[4,5-b]pyridine], the IC50 is 0.0501 nM.
